This note sets out measurements from patent US20110262359A1, “COMPOSITIONS COMPRISING ENZYME-CLEAVABLE PRODRUGS OF ACTIVE AGENTS AND INHIBITORS THEREOF” (priority 2010, published 2011).

A short description of series [1]: Oral administration of Compound KC-4 and trypsin inhibitor Compound 109 to rats. Conditions: rat PO; KC-4 6 mg/kg with Compound 109 30 mg/kg. It is filed as in vivo.
A short description of series [2]: Oral administration of Compound KC-3 and trypsin inhibitor Compound 109 to rats. It is filed as in vivo. Conditions: rat PO; KC-3 50 mg/kg with Compound 109 10 to 40 mg/kg.
A short description of series [3]: Oral administration of Compound PC-5 co-dosed with trypsin inhibitor Compound 109 to rats. It is filed as in vivo. The settings on record: rat PO; PC-5 6 mg/kg with Compound 109 0.1 to 10 mg/kg.
Series [4] in a line: Oral administration of Compound KC-2 co-dosed with increasing Compound 109 to rats. It is filed as in vivo. Conditions: rat PO; KC-2 50 mg/kg with Compound 109 10 to 40 mg/kg.
Series [5] is described as follows: Oral administration of Compound KC-2 and trypsin inhibitor Compound 109 to rats. It is filed as in vivo. Conditions: rat PO; KC-2 6 mg/kg with Compound 109 30 mg/kg.
Series [6] in a line: Oral administration of Compound PC-6 co-dosed with trypsin inhibitor Compound 109 to rats. The class given is in vivo. Conditions: rat PO; PC-6 6 mg/kg with Compound 109 0.01 to 30 mg/kg.
Series [7] concerns the target T1, trypsin from bovine pancreas (Bos taurus, UniProt P00760).
T1 sequence (P00760 24-246): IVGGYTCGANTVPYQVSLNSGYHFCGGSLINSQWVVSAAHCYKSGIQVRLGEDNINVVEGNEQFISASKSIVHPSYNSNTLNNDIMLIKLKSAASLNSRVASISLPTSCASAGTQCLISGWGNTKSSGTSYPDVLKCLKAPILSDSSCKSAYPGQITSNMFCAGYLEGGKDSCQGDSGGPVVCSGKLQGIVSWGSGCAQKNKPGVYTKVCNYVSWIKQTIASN
Description: Effect of trypsin inhibition on in vitro trypsin-mediated release of oxycodone from Compound KC-2. It is filed as biochemical. The settings on record: no trypsin inhibitor; 0.761 mM Compound KC-2, 0.0228 mg/mL trypsin, 37° C. The arrangement: trypsin from bovine pancreas; purchased Sigma-Aldrich T8003; host or cells: bovine pancreas (tissue-derived).

The nature of series [8]: In vitro stability of Compound KC-2 to household chemicals and enzyme preparations. It is filed as physicochemical. The settings on record: vodka, baking soda, WINDEX, vinegar at RT or 80° C.; GNC Super Digestive, tenderizer, subtilisn at RT; 1 or 24 hr. Here is the method: Samples were incubated as described and aliquots removed at 1 hr and 24 hr and stabilized by adding each to a solution of 50% or 100% of 85% phosphoric acid solution to achieve a final pH of less than or equal to pH 4. The stabilized aliquots were then diluted 4- to 6-fold with water, vortex-mixed and applied to HPLC.

Series [9] is described as follows: Pharmacokinetics of oxycodone prodrug Compound KC-2 or oxycodone following PO administration to rats. It is filed as in vivo. The settings on record: rat PO; Compound KC-2 20 mg/kg vs oxycodone 10 mg/kg.
For series [10] the following is noted: male, Sprague Dawley, rat, in vivo.
For series [11] the following is noted: male, Sprague Dawley, rat, in vivo. This is another data set of the same source.
Series [12] is described as follows: In vitro stability of Compound KC-3 to household chemicals and enzyme preparations. It is filed as physicochemical. Conditions: vodka, baking soda, WINDEX, vinegar at RT or 80° C.; GNC Super Digestive, tenderizer, subtilisn at RT; 1 or 24 hr. Here is the method: Samples were incubated as described. Aliquots were removed at 1 hr and 24 hr and stabilized by adding each to a solution of 50% or 100% of 85% phosphoric acid solution to achieve a final pH of less than or equal to pH 4. The stabilized aliquots were then diluted 4- to 6-fold with water, vortex-mixed and applied to HPLC.

Series [13] has as its target T1, trypsin from bovine pancreas. Description: In vitro trypsin conversion of ketone-modified opioid prodrugs to oxycodone or hydrocodone and inhibition by Compound 109. Conditions: 0.761 mM prodrug, no inhibitor, 37° C. More on the design: trypsin from bovine pancreas; purchased Sigma-Aldrich T8003; host or cells: bovine pancreas (tissue-derived). The class given is biochemical.

Series [14] in a line: In vivo tolerability of Compound KC-3 in rats (IV). The settings on record: rat IV. As for the experimental part: Male naïve Sprague-Dawley rats, 4 per dose, were used in the study. Rats were weighed, and then placed under a heat lamp for 15-20 minutes to dilate the lateral tail veins. […] Before dosing, rats were placed in Broome restrainers and the drug was introduced into one of the tail veins using a syringe and needle. […] Blood samples were collected 5 minutes post-dose via the saphenous vein. The rats were observed up to 24 hours.

The nature of series [15]: Pharmacokinetics of Compound KC-4 following IV administration to rats. It is filed as in vivo. Conditions: KC-4 2 mg/kg ([…]).
For another series, the target named is T2, human μ-opioid receptor (Homo sapiens, UniProt P35372).
T2 construct: expressed in transfected cells; host or cells: CHO
The class given is cell-based. The settings on record: EC50 at the human μ-opioid receptor, oxycodone or hydrocodone to the prodrug of that drug, same experiment.

Series [16] is described as follows: Pharmacokinetics of Compound KC-4 following PO administration to rats. The class given is in vivo. Conditions: rat PO; KC-4 6 mg/kg.
Series [17] is described as follows: Pharmacokinetics of Compound KC-5 following PO administration to rats. The class given is in vivo. The settings on record: rat PO.
The conditions of series [18]: male, Sprague Dawley, rat, in vivo. This is another data set of the same source.
A short description of series [19]: Pharmacokinetics of Compound KC-6 following PO administration to rats. The settings on record: rat PO. It is filed as in vivo.
Where [20] appears, read: male, Sprague Dawley, rat, in vivo.

Read-outs that look alike come from different tables or passages of the source. Where only a bound is given, the exact number is not on record here.

T2 sequence (P35372 whole entry): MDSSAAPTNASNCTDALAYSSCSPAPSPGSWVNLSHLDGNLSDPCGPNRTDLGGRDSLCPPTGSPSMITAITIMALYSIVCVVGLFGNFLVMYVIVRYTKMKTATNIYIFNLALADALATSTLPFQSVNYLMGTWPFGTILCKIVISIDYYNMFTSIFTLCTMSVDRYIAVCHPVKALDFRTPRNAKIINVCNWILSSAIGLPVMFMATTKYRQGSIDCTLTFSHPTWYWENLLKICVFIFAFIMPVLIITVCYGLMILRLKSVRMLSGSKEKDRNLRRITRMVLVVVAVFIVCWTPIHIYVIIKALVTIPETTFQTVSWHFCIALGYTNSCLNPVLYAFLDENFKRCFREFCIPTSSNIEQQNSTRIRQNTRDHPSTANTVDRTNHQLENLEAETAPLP

Take `N=C(N)c1ccc2cc(OC(=O)c3ccc(N=C(N)N)cc3)ccc2c1` [Compound 109, 6-carbamimidoylnaphthalen-2-yl 4-(diaminomethyleneamino)benzoate]: the “effect of Compound 109 on release of hydrocodone from Compound KC-4” value in [1] was “attenuates Compound KC-4's ability to release hydrocodone, both by suppressing Cmax and AUC and by delaying Tmax”. In addition, the “effect of Compound 109 on release of oxycodone from Compound KC-3” value in series [2] is “attenuates Compound KC-3's ability to release oxycodone, both by suppressing Cmax and AUC and by delaying Tmax”. Besides, the “effect of Compound 109 on release of hydromorphone from Compound PC-5” value in series [3] was “ability to attenuate Compound PC-5's ability to release hydromorphone in a dose dependent manner”. In addition, the “effect of Compound 109 on release of oxycodone from Compound KC-2” value in series [4] is “ability to attenuate Compound KC-2's ability to release oxycodone in a dose dependent manner”; in [5], “attenuates Compound KC-2's ability to release oxycodone, both by suppressing Cmax and by delaying Tmax”. Also, the “effect of Compound 109 on release of hydromorphone from Compound PC-6” value in series [6] is “ability to attenuate Compound PC-6's ability to release hydromorphone in a dose dependent manner”.
On to `COc1ccc2c3c1O[C@H]1C(OC(=O)N(C)CCNC(=O)[C@H](CCCNC(=N)N)NC(C)=O)=CC[C@@]4(O)[C@@H](C2)N(C)CC[C@]314` [Compound KC-2, Oxycodone 6-(N-methyl-N-(2-N′-acetylarginylamino)) ethylcarbamate], for which, in [7], the “Rate of oxycodone formation, umols/h/umol trypsin Average ± sd” value was 37.4 ± 0.9 umols/h/umol trypsin. Besides, in series [8], the “conversion of Compound KC-2 to oxycodone on exposure to household chemicals and enzyme preparations” value is listed as “less than 10%”. Moreover, the “oxycodone plasma profile compared to administration of oxycodone” value in [9] is “yields oxycodone plasma concentrations that exhibit a suppressed Cmax and delayed Tmax compared to administration of oxycodone”. This compound also registered a Plasma/CSF partitioning coefficient in series [10] of 439.
As to `COc1ccc2c3c1O[C@H]1C(OC(=O)N(C)CCNC(=O)[C@H](CCCNC(=N)N)NC(=O)CC(=O)O)=CC[C@@]4(O)[C@@H](C2)N(C)CC[C@]314` [Compound KC-3, N-{(S)-4-guanidino-1-[2-(methyl-[(5R,9R,13S,14S)-4,5a-epoxy-6,7-didehydro-14-hydroxy-3-methoxy-17-methylmorphinan-6-oxy]carbonyl-amino)-ethylcarbamoyl]-butyl}-malonamic acid], in series [11], the “Compound conc. in CSF” value is 0.0341 µg/mL; the “Compound conc. in Plasma, ng/mL” value was 59,225 ng/mL; the Plasma/CSF partitioning coefficient is 1,737. Further, the “conversion of Compound KC-3 to oxycodone on exposure to household chemicals and enzyme preparations” value in [12] is reported as “less than 10%”. Also, the “Rate of oxycodone formation, umol/h/BAEE U Average ± sd” value in series [13] (241 BAEE U trypsin/mL) is given as 0.0684 ± 0.0009 umol/h/BAEE U. For the same compound, the “dose tolerated by rats” value in [14] came out at 97 µmol/kg. In addition, the “time to recover to normal activity” value in series [14] (KC-3 97 μmol/kg) was at most 2 min.
In the case of `COc1ccc2c3c1OC1C(OC(=O)N(C)CCNC(=O)[C@H](CCCNC(=N)N)NC(=O)CC(=O)O)=CCC4[C@@H](C2)N(C)CC[C@]314` (stereo partly drawn) [Compound KC-4, N—((S)-1-{2-[(Dihydrocodein-6-enyloxycarbonyl)-methylamino]-ethylcarbamoyl-4-guanidino}-butyl)-malonamic acid], the “KC-4 Cmax (rat plasma)” value in [15] was 3.96 ± 0.57 µg/mL. Also, at human μ-opioid receptor, the Drug/prodrug relative potency is 15. Moreover, the “Rate of hydrocodone formation, umol/h/BAEE U Average ± sd” value in series [13] (241 BAEE U trypsin/mL) is recorded as 0.0911 ± 0.015 umol/h/BAEE U; in series [13] (4815 BAEE U trypsin/mL), 0.0137 ± 0.0014 umol/h/BAEE U. Moreover, the “release of hydrocodone after oral administration” value in series [16] is given as “leads to release of hydrocodone”.
As to `COc1ccc2c3c1O[C@H]1C(OC(=O)N(CCCCCC(=O)O)CCNC(=O)[C@H](CCCNC(=N)N)NC(C)=O)=CC[C@@]4(O)[C@@H](C2)N(C)CC[C@]314` [Compound KC-5, 6-{[2-(2-Acetylamino-5-guanidino-pentanoylamino)-ethyl]-[(5R, 9R,13S,14S)-4,5a-epoxy-6,7-didehydro-14-hydroxy-3-methoxy-17-methylmorphinan-6-oxy]-1-enyloxycarbonyl-amino}-hexanoic acid], the “expected fold less effective at CNS mu-opioid receptors than oxycodone” value (administered intravenously in equimolar amounts, 316×50) is reported as “about 15,800 fold”. Further, under setting [20], the “Compound conc. in CSF” value was 0.0364 µg/mL, the “Compound conc. in Plasma” value is listed as 54,900 ng/mL and the Plasma/CSF partitioning coefficient is given as 1,508. The “relative plasma/CSF partitioning coefficient of prodrug to oxycodone (fold less CSF penetrant than oxycodone)” value (rat IV, 1,508/4.8) is on record as “about 316 fold”. Further, in series [17], the “oxycodone plasma profile compared to administration of oxycodone” value was “yields oxycodone plasma concentrations that exhibit a suppressed Cmax and AUC and delayed Tmax compared to administration of oxycodone”. Besides, in series [13] (241 BAEE U trypsin/mL), the “Rate of oxycodone formation, umol/h/BAEE U Average ± sd” value stood at 0.135 ± 0.005 umol/h/BAEE U.
In [18], `COc1ccc2c3c1O[C@H]1C(OC(=O)N(C)C[C@H](NC(=O)[C@H](CCCNC(=N)N)NC(C)=O)C(=O)N(C)CC(=O)O)=CC[C@@]4(O)[C@@H](C2)N(C)CC[C@]314` [Compound KC-6, ({(S)-2-((S)-2-Acetylamino-5-guanidino-pentanoylamino)-3-[(oxycodone-enyloxycarbonyl)-methyl-amino]-propionyl}-methyl-amino)-acetic acid] came in with a Plasma/CSF partitioning coefficient of 815. The “oxycodone plasma profile compared to administration of oxycodone” value in series [19] was “yields oxycodone plasma concentrations that exhibit a suppressed Cmax and AUC and delayed Tmax compared to administration of oxycodone”. The “Rate of oxycodone formation, umol/h/BAEE U Average ± sd” value in [13] (241 BAEE U trypsin/mL) was 0.0118 ± 0.0042 umol/h/BAEE U; in series [13] (4815 BAEE U trypsin/mL) it was 0.00571 ± 0.0002 umol/h/BAEE U.
